Test results reported in paper PMC12635268, “Novel antimicrobial peptides and peptide-microbiome crosstalk in Appalachian salamander skin” (NPJ Biofilms and Microbiomes, 2025).
≈ marks a conversion by molar mass, not a printed value. Where two headings read alike, the source gives them in different places.

How the values were obtained:
[1] = system: Batrachochytrium dendrobatidis Bd-GPL strain JEL404; conditions: slope of growth, positive = inhibition, negative = no inhibition
[2] = design: method as in Biomatik (vendor); conditions: 1.0 mg peptide in 1.0 ml solvent; peptides synthesized by Biomatik; ref Biomatik (vendor); cited from earlier work
[3] = system: A. baumannii 5075
[4] = system: K. pneumoniae 4640; conditions: K. pneumoniae 4640
[5] = system: E. cloacae ATCC 35549; assay: microbe, parasite or virus in culture; conditions: for Bacterial MIC: E. cloacae 35549; for MIC: Enterobacter cloacae
In short: (§1)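 Each strain was exposed in duplicate to two-fold peptide dilutions (0.25 to 128 μg/mL) in cation-adjusted Mueller-Hinton broth at 1 × 10⁵ CFU/mL. After 20 h at 37 °C without shaking, the lowest concentration lacking visible growth was recorded following CLSI.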

[6] = system: A. baumannii ATCC 17978; assay: microbe, parasite or virus in culture; conditions: for Bacterial MIC: A. baumannii 17978; for MIC: Acinetobacter baumannii
In short: as §1

[7] = system: E. coli ATCC 43888; assay: microbe, parasite or virus in culture; conditions: for Bacterial MIC: E. coli 43888; for MIC: Escherichia coli
In short: as §1

[8] = system: E. cloacae ATCC 13047; assay: microbe, parasite or virus in culture; conditions: for Bacterial MIC: E. cloacae 13047; for MIC: Enterobacter cloacae
In short: as §1

[9] = system: A. baumannii 5075; assay: microbe, parasite or virus in culture
[10] = system: K. pneumoniae 4640; assay: microbe, parasite or virus in culture
[11] = CAMHB, 1 × 10⁵ CFU/mL, 0.25 to 128 μg/mL, 37 °C 20 h, duplicate, read visually (CLSI)

Q: What does the source list for `CC[C@H](C)[C@H](NC(=O)[C@H](CCCCN)NC(=O)[C@H](CCC(=O)O)NC(=O)[C@H](CCCCN)NC(=O)[C@H](CO)NC(=O)[C@H](CCCCN)NC(=O)[C@H](CCCNC(=N)N)NC(=O)[C@H](Cc1ccccc1)NC(=O)[C@H](Cc1ccccc1)NC(=O)[C@H](CC(=O)O)NC(=O)CNC(=O)[C@H](CC(C)C)NC(=O)[C@@H](N)CC(C)C)C(=O)NCC(=O)N[C@@H](CCCCN)C(=O)N[C@@H](CCC(=O)O)C(=O)N[C@@H](Cc1ccccc1)C(=O)N[C@@H](CCCCN)C(=O)N[C@@H](CCCNC(=N)N)C(=O)N[C@H](C(=O)N[C@H](C(=O)N[C@@H](CCC(N)=O)C(=O)N[C@@H](CCCNC(=N)N)C(=O)N[C@H](C(=O)N[C@@H](CCCCN)C(=O)N[C@@H](CC(=O)O)C(=O)N[C@@H](Cc1ccccc1)C(=O)N[C@@H](CC(C)C)C(=O)N[C@@H](CCCNC(=N)N)C(=O)N[C@@H](CC(N)=O)C(=O)N[C@@H](CC(C)C)C(=O)N[C@H](C(=O)N1CCC[C@H]1C(=O)N[C@@H](CCCNC(=N)N)C(=O)N[C@H](C(=O)N[C@@H](CCC(=O)O)C(=O)N[C@@H](CO)C(=O)O)[C@@H](C)O)C(C)C)[C@@H](C)CC)C(C)C)[C@@H](C)CC` [LL-37, reference compound]?
A: Bd inhibition score (percent inhibition), mean ([1]; synthesized peptide 15.625 μg/mL): -44.2834%; Bd inhibition score (percent inhibition), mean ([1]; synthesized peptide 31.25 μg/mL): -68.3967%; Bd inhibition score (percent inhibition), mean ([1]; synthesized peptide 62.5 μg/mL): -39.8112%; Bd inhibition score (percent inhibition), mean ([1]; synthesized peptide 125 μg/mL): -55.6571%; Bd inhibition score (percent inhibition), mean ([1]; synthesized peptide 250 μg/mL): -81.8611%; Bd inhibition score (percent inhibition), mean ([1]; synthesized peptide 500 μg/mL): -318.384%; Suggest solvent (solubility) [2]: 1.0mg peptide soluble in 1.0ml (H2O:Acetonitrile=3:1); MIC [3, 11]: 4 µg/mL (≈ 0.89 µM); Bacterial MIC ([3]; Week 1 (12/6/2023)): 4 µg/mL; Bacterial MIC ([3]; Week 2 (12/14/2023)): 4 µg/mL; MIC [4, 11]: 64 µg/mL (≈ 14.2 µM); Bacterial MIC ([4]; Week 1 (12/6/2023)): 64 µg/mL; Bacterial MIC ([4]; Week 2 (12/14/2023)): 64 µg/mL

Q: With `C[C@H]1COc2c(N3CCN(C)CC3)c(F)cc3c(=O)c(C(=O)O)cn1c23` [Levofloxacin, reference compound] as the molecule, how does the “Bacterial MIC” value ([5]; Historical run 15NOV23) read?
A: <= 0.250 µg/mL

Q: And the “Bacterial MIC” value ([5]; Historical run 19APRIL23)?
A: <= 0.250 µg/mL

Q: What about the “Bacterial MIC” value ([5]; Historical run 22NOV23) of the same molecule?
A: <= 0.250 µg/mL

Q: And the “Bacterial MIC” value ([5]; Week 2 (12/14/2023))?
A: <= 0.250 µg/mL

Q: What about the MIC ([5]; ATCC35549, 20 h) of the same molecule?
A: 0.25 µg/mL (≈ 0.692 µM)

Q: What about the MIC ([5]; ATCC35549, read-out: Bacterial MIC) of the same molecule?
A: ≤ 0.25 µg/mL

Q: And the “Bacterial MIC” value ([6]; Historical run 15NOV23)?
A: <= 0.250 µg/mL

Q: And the “Bacterial MIC” value ([6]; Historical run 19APRIL23)?
A: <= 0.250 µg/mL

Q: And the “Bacterial MIC” value ([6]; Historical run 22NOV23)?
A: <= 0.250 µg/mL

Q: And the “Bacterial MIC” value ([6]; Week 2 (12/14/2023))?
A: <= 0.250 µg/mL

Q: What about the MIC ([6]; ATCC17978, 20 h) of the same molecule?
A: 0.25 µg/mL (≈ 0.692 µM)

Q: What about the MIC ([6]; ATCC17978, read-out: Bacterial MIC) of the same molecule?
A: ≤ 0.25 µg/mL

Q: What about the “Bacterial MIC” value ([7]; Historical run 15NOV23) of the same molecule?
A: <= 0.250 µg/mL

Q: And the “Bacterial MIC” value ([7]; Historical run 19APRIL23)?
A: <= 0.250 µg/mL

Q: And the “Bacterial MIC” value ([7]; Historical run 22NOV23)?
A: <= 0.250 µg/mL

Q: What about the “Bacterial MIC” value ([7]; Week 2 (12/14/2023)) of the same molecule?
A: <= 0.250 µg/mL

Q: What about the MIC ([7]; ATCC43888, 20 h) of the same molecule?
A: 0.25 µg/mL (≈ 0.692 µM)

Q: What about the MIC ([7]; ATCC43888, read-out: Bacterial MIC) of the same molecule?
A: ≤ 0.25 µg/mL

Q: What about the “Bacterial MIC” value ([8]; Historical run 15NOV23) of the same molecule?
A: <= 0.250 µg/mL

Q: What about the “Bacterial MIC” value ([8]; Historical run 19APRIL23) of the same molecule?
A: <= 0.250 µg/mL

Q: And the “Bacterial MIC” value ([8]; Historical run 22NOV23)?
A: <= 0.250 µg/mL

Q: What about the “Bacterial MIC” value ([8]; Week 2 (12/14/2023)) of the same molecule?
A: <= 0.250 µg/mL

Q: What about the MIC ([8]; ATCC13047, 20 h) of the same molecule?
A: 0.25 µg/mL (≈ 0.692 µM)

Q: What about the MIC ([8]; ATCC13047, read-out: Bacterial MIC) of the same molecule?
A: ≤ 0.25 µg/mL

Q: What about the MIC ([9]; Acinetobacter baumannii, 5075, 20 h, A. baumannii 5075, CAMHB, 1 × 10⁵ CFU/mL, 0.25 to 128 μg/mL, 37 °C 20 h, duplicate, read visually (CLSI)) of the same molecule?
A: 4 µg/mL (≈ 11.1 µM)

Q: What about the MIC ([9]; Acinetobacter baumannii, 5075, read-out: Bacterial MIC, A. baumannii 5075, Historical run 15NOV23) of the same molecule?
A: 8 µg/mL (≈ 22.1 µM)

Q: What about the MIC ([9]; Acinetobacter baumannii, 5075, read-out: Bacterial MIC, A. baumannii 5075, Historical run 19APRIL23) of the same molecule?
A: 4 µg/mL (≈ 11.1 µM)

Q: What about the MIC ([9]; Acinetobacter baumannii, 5075, read-out: Bacterial MIC, A. baumannii 5075, Historical run 22NOV23) of the same molecule?
A: 4 µg/mL (≈ 11.1 µM)

Q: And the MIC ([9]; Acinetobacter baumannii, 5075, read-out: Bacterial MIC, A. baumannii 5075, Week 1 (12/6/2023))?
A: 4 µg/mL (≈ 11.1 µM)

Q: What about the MIC ([9]; Acinetobacter baumannii, 5075, read-out: Bacterial MIC, A. baumannii 5075, Week 2 (12/14/2023)) of the same molecule?
A: 4 µg/mL (≈ 11.1 µM)

Q: And the MIC ([10]; Klebsiella pneumoniae, 4640, 20 h, K. pneumoniae 4640, CAMHB, 1 × 10⁵ CFU/mL, 0.25 to 128 μg/mL, 37 °C 20 h, duplicate, read visually (CLSI))?
A: 32 µg/mL (≈ 88.6 µM)

Q: And the MIC ([10]; Klebsiella pneumoniae, 4640, read-out: Bacterial MIC, K. pneumoniae 4640, Historical run 15NOV23)?
A: 32 to 64 µg/mL (≈ 88.6 to 177 µM)

Q: And the MIC ([10]; Klebsiella pneumoniae, 4640, read-out: Bacterial MIC, K. pneumoniae 4640, Historical run 19APRIL23)?
A: 64 µg/mL (≈ 177 µM)

Q: What about the MIC ([10]; Klebsiella pneumoniae, 4640, read-out: Bacterial MIC, K. pneumoniae 4640, Historical run 22NOV23) of the same molecule?
A: 32 µg/mL (≈ 88.6 µM)

Q: And the MIC ([10]; Klebsiella pneumoniae, 4640, read-out: Bacterial MIC, K. pneumoniae 4640, Week 1 (12/6/2023))?
A: 32 µg/mL (≈ 88.6 µM)

Q: And the MIC ([10]; Klebsiella pneumoniae, 4640, read-out: Bacterial MIC, K. pneumoniae 4640, Week 2 (12/14/2023))?
A: 32 µg/mL (≈ 88.6 µM)
